# pIC50: −log10 of the molar value.
# Test system: Trypanosoma cruzi
# Assay: Antitrypanosomal activity against epimastigote forms of Trypanosoma cruzi Y after 72 hr
# Type: functional, organism-based
# Details: not given; call rule not given here
row,IC50,Compound
1,Not Active,COC(=O)/C=C/c1cc(OC)c(OC)c(OC)c1
2,Not Active,"CC(C)CNC(=O)/C=C/CCc1ccc2c(c1)OCO2 [4,5-DIHYDROPIPERLONGUMININE]"
3,Not Active,CC(C)CNC(=O)/C=C/c1ccc2c(c1)OCO2 [FOGARAMIDE]
4,Not Active,O=C(/C=C/CCc1ccc2c(c1)OCO2)N1CCCCC1 [PIPERANINE]
5,Not Active,O=C(O)/C=C/C=C/c1ccc2c(c1)OCO2 [PIPERIC ACID]
6,Not Active,COc1cc(/C=C/C(=O)O)cc(OC)c1OC [SINAPIC ACID METHYL ETHER]
7,Not Active,CCCCCCCCCC(=O)NCC(C)C [TETRAHYDROPELLITORINE]
8,Not Active,O=C(CCCCc1ccc2c(c1)OCO2)N1CCCCC1 [TETRAHYDROPIPERINE]
9,Not Active,COc1cc(CCC(=O)N2CCCCC2=O)cc(OC)c1OC [TETRAHYDROPIPLARTINE]

# Same assay, conditions: Trypanosoma cruzi, Y, 72 h; read-out: IC50
row,pIC50,Compound
1,4.98,COc1cc(/C=C\C(=O)N2CCC=CC2=O)cc(OC)c1OC [(Z)-PIPLARTINE]
2,4.24,CCCCC/C=C/C=C/C(=O)NCC(C)C [PELLITORIN]
3,3.63,O=C(/C=C/C=C/c1ccc2c(c1)OCO2)N1CCCCC1 [PIPERINE]
4,4.68,COc1cc(/C=C/C(=O)N2CCC=CC2=O)cc(OC)c1OC [PIPLARTINE]

# Source: ChEMBL document CHEMBL3044681, “Piperamides and their derivatives as potential anti-trypanosomal agents” (Med Chem Res, 2009)
